The values below come from patent US20230265116A1, “DEGRADATION OF (EGFR) BY CONJUGATION OF EGFR INHIBITORS WITH E3 LIGASE LIGAND AND METHODS OF USE” (BEIGENE, LTD., priority 2020, published 2023).

Test [1] concerns EGFR Del19/T790M/C797S (H1975-clone #28). As to the kind of experiment: EGFR degradation HTRF assay, H1975-clone #28 DTC cells. It counts as cell-based. The settings on record: H1975 # 28 DTC cells; for DC50: EGFR degradation, IC50 (DC50) from curve fit, read-out: DC50(nM) H1975 # 28 DTC; for Dmax (%) H1975 # 28 DTC: maximum percentage of inhibition (degradation). A digest of the protocol:
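H1975 clones stably overexpressing mutant EGFR, with endogenous EGFR knocked out by sgRNA and homozygosity confirmed by sequencing, were treated 16h at 37° C. with compounds in 0.2% DMSO (top final 10 uM, 5-fold, 8 doses). Lysates were read by HTRF (665/620 nm); DC50 and Dmax came from fitting % degradation versus DMSO control.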
Background: Time-resolved FRET reads energy transfer from a long-lived donor to a nearby acceptor.

Test [2] has as its target T1, EGFR L858R/T790M/C797S (BaF3-LTC cells) (Homo sapiens, UniProt P00533, C797S/L858R/T790M).
T1 construct: expressed in transfected cells; host or cells: BaF3
As to the kind of experiment: EGFR degradation HTRF assay, BaF3-LTC cells. In kind it is cell-based. The settings on record: BaF3-LTC cells; for DC50: EGFR degradation, IC50 (DC50) from curve fit, read-out: DC50(nM) BaF3-LTC; for Dmax: maximum percentage of inhibition (degradation), read-out: Dmax (%) BaF3-LTC. In a few lines:
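Cells treated 16 h at 37 °C, 5% CO2 in medium with 0.2% DMSO; top final concentration 10 uM, 5-fold dilution, 8 doses. Lysates read by HTRF (665/620 nm); degradation % versus DMSO high control, DC50 from four-parameter fit, Dmax as maximal degradation.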

Each structure is given as a SMILES string.

T1 sequence (P00533 25-1210 T790M/C797S/L858R): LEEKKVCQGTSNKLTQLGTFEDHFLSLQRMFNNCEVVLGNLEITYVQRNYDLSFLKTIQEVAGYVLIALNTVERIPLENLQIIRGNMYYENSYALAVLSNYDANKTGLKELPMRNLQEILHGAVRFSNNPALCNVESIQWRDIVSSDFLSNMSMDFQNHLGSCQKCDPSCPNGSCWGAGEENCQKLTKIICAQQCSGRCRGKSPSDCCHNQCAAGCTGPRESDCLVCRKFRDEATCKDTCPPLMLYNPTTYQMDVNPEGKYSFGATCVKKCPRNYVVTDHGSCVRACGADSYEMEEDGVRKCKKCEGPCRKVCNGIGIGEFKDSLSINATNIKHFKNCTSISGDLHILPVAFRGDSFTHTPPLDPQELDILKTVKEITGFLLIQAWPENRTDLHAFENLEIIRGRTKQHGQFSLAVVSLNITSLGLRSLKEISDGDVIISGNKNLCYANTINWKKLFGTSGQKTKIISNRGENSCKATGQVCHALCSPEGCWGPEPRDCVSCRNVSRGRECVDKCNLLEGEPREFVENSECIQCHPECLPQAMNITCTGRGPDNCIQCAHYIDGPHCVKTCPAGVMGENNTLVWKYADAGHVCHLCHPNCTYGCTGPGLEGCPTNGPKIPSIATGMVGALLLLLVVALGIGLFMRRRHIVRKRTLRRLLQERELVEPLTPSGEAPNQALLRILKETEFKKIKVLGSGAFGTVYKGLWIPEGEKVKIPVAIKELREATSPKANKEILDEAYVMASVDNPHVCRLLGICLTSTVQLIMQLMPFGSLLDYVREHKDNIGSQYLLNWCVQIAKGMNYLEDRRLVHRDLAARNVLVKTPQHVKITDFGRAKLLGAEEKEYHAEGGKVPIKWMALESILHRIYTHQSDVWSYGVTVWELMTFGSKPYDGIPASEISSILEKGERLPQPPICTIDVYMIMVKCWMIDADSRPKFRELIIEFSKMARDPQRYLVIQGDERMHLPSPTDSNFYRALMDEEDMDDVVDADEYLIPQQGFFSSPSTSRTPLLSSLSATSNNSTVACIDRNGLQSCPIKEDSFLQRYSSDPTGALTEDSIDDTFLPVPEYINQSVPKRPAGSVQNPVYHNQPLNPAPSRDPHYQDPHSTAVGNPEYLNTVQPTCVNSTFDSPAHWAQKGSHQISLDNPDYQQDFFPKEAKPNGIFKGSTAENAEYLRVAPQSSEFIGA

What is called DC50 is the midpoint of the concentration-degradation curve. A word on the Dmax: it is the largest share of the target that was removed. Turning to `COc1cc(N2CCC(N3CCN(C(=O)[C@@H]4CCN(c5cc(F)c([C@H]6CCC(=O)NC6=O)c(F)c5)C4)CC3)CC2)c(C)cc1Nc1ncc(Br)c(Nc2ccc3c(=O)n(C)ncc3c2P(C)(C)=O)n1` [Example 527, (R)-3-(4-((R)-3-(4-(1-(4-((5-bromo-4-((5-(dimethylphosphoryl)-2-methyl-1-oxo-1,2-dihydrophthalazin-6-yl)amino)pyrimidin-2-yl)amino)-5-methoxy-2-methylphenyl)piperidin-4-yl)piperazine-1-carbonyl)pyrrolidin-1-yl)-2,6-difluorophenyl)piperidine-2,6-dione], in test [1], the DC50 was 0.583 nM and the “Dmax (%) H1975 # 28 DTC” value is reported as 85.27%. Also, in test [2], the DC50 is 1.77 nM and the Dmax was found to be 93.4%.
Take `CCOc1cc(N2CCC(N3CCN(C(=O)[C@@H]4CCN(c5cc(F)c([C@H]6CCC(=O)NC6=O)c(F)c5)C4)CC3)CC2)c(C)cc1Nc1ncc(Br)c(Nc2ccc3c(=O)n(C)ncc3c2P(C)(C)=O)n1` [Example 529, (R)-3-(4-((R)-3-(4-(1-(4-((5-bromo-4-((5-(dimethylphosphoryl)-2-methyl-1-oxo-1,2-dihydrophthalazin-6-yl)amino)pyrimidin-2-yl)amino)-5-ethoxy-2-methylphenyl)piperidin-4-yl)piperazine-1-carbonyl)pyrrolidin-1-yl)-2,6-difluorophenyl)piperidine-2,6-dione]: in test [1], the DC50 was 1.03 nM and the “Dmax (%) H1975 # 28 DTC” value is given as 85.06%. In test [2], the DC50 was 5.8 nM and the Dmax came to 91.9%.
For the compound `CCOc1cc(N2CCC(N3CCN(C(=O)[C@@H]4CCN(c5cc(F)c([C@H]6CCC(=O)NC6=O)c(F)c5)C4)CC3)CC2)c(CC)cc1Nc1ncc(Br)c(Nc2ccc3c(=O)n(C)ncc3c2P(C)(C)=O)n1` [Example 530, (R)-3-(4-((R)-3-(4-(1-(4-((5-bromo-4-((5-(dimethylphosphoryl)-2-methyl-1-oxo-1,2-dihydrophthalazin-6-yl)amino)pyrimidin-2-yl)amino)-5-ethoxy-2-ethylphenyl)piperidin-4-yl)piperazine-1-carbonyl)pyrrolidin-1-yl)-2,6-difluorophenyl)piperidine-2,6-dione], in test [1], the half-maximal degradation concentration (DC50) was determined as 1.87 nM and the “Dmax (%) H1975 # 28 DTC” value is 82.54%. Further, in test [2], the DC50 turned out to be 5.05 nM and the Dmax was 94.6%.
On the same counts, the results for `CCOc1cc(N2CCC(N3CCN(CC4CN(c5cc(F)c(C6CCC(=O)NC6=O)c(F)c5)C4)CC3)CC2)c(CC)cc1Nc1ncc(Br)c(Nc2ccc3c(=O)n(C)ncc3c2P(C)(C)=O)n1` (stereo not shown) [Example 535, 3-(4-(3-((4-(1-(4-((5-bromo-4-((5-(dimethylphosphoryl)-2-methyl-1-oxo-1,2-dihydrophthalazin-6-yl)amino)pyrimidin-2-yl)amino)-5-ethoxy-2-ethylphenyl)piperidin-4-yl)piperazin-1-yl)methyl)azetidin-1-yl)-2,6-difluorophenyl)piperidine-2,6-dione] are 1.13 nM, 82.79%, 9.87 nM and 93.8%.
As for `CCc1cc(Nc2ncc(Br)c(Nc3cc(F)c4nc(C)ccc4c3P(C)(C)=O)n2)c(OC)cc1N1CCC(N2CCN(CCc3ccc4c(c3)oc(=O)n4C3CCC(=O)NC3=O)CC2)CC1` (stereo not shown) [Example 536, 3-(6-(2-(4-(1-(4-((5-bromo-4-((5-(dimethylphosphoryl)-8-fluoro-2-methylquinolin-6-yl)amino)pyrimidin-2-yl)amino)-2-ethyl-5-methoxyphenyl)piperidin-4-yl)piperazin-1-yl)ethyl)-2-oxobenzo[d]oxazol-3(2H)-yl)piperidine-2,6-dione], in test [1], the DC50 was found to be 0.582 nM and the “Dmax (%) H1975 # 28 DTC” value amounted to 73.22%. For the same compound, in test [2], the DC50 amounted to 0.867 nM and the Dmax came to 96.3%.
On the same counts, the results for `CCc1cc(Nc2ncc(Br)c(Nc3ccc4nc(C)ccc4c3P(C)(C)=O)n2)c(OC)cc1N1CCC(N2CCN(CC3CN(c4ccc5c(c4)oc(=O)n5C4CCC(=O)NC4=O)C3)CC2)CC1` (stereo not shown) [Example 537, 3-(6-(3-((4-(1-(4-((5-bromo-4-((5-(dimethylphosphoryl)-2-methylquinolin-6-yl)amino)pyrimidin-2-yl)amino)-2-ethyl-5-methoxyphenyl)piperidin-4-yl)piperazin-1-yl)methyl)azetidin-1-yl)-2-oxobenzo[d]oxazol-3(2H)-yl)piperidine-2,6-dione] are 0.223 nM, 65.01%, 0.934 nM and 94%.
On to `CCc1cnc2c(P(C)(C)=O)c(Nc3nc(Nc4cc(CC)c(N5CCC(N6CCN(C(=O)[C@@H]7CCN(c8cc(F)c([C@H]9CCC(=O)NC9=O)c(F)c8)C7)CC6)CC5)cc4OC)ncc3Br)ccc2n1` [Example 538, (R)-3-(4-((R)-3-(4-(1-(4-((5-bromo-4-((5-(dimethylphosphoryl)-2-ethylquinoxalin-6-yl)amino)pyrimidin-2-yl)amino)-2-ethyl-5-methoxyphenyl)piperidin-4-yl)piperazine-1-carbonyl)pyrrolidin-1-yl)-2,6-difluorophenyl)piperidine-2,6-dione], for which, in test [1], the DC50 stood at 2.39 nM and the “Dmax (%) H1975 # 28 DTC” value is 80.57%. Further, in test [2], the DC50 amounted to 16.2 nM and the Dmax was 89.6%.
For the compound `CCc1ccc2c(P(C)(C)=O)c(Nc3nc(Nc4cc(C)c(N5CCC(N6CCN(C(=O)[C@@H]7CCN(c8cc(F)c([C@H]9CCC(=O)NC9=O)c(F)c8)C7)CC6)CC5)cc4OC)ncc3Br)ccc2n1` [Example 539, (R)-3-(4-((R)-3-(4-(1-(4-((5-bromo-4-((5-(dimethylphosphoryl)-2-ethylquinolin-6-yl)amino)pyrimidin-2-yl)amino)-5-methoxy-2-methylphenyl)piperidin-4-yl)piperazine-1-carbonyl)pyrrolidin-1-yl)-2,6-difluorophenyl)piperidine-2,6-dione], in test [1], the DC50 turned out to be 1.09 nM and the “Dmax (%) H1975 # 28 DTC” value is reported as 84.42%. Further, in test [2], the 50% degradation concentration (DC50) stood at 6.44 nM and the Dmax turned out to be 94.1%.
As to `CCOc1cc(N2CCC(N3CCN(CC4CN(c5cc(F)c([C@H]6CCC(=O)NC6=O)c(F)c5)C4)CC3)CC2)c(CC)cc1Nc1ncc(Br)c(Nc2ccc3nc(CC)ccc3c2P(C)(C)=O)n1` [Example 541, (R)-3-(4-(3-((4-(1-(4-((5-bromo-4-((5-(dimethylphosphoryl)-2-ethylquinolin-6-yl)amino)pyrimidin-2-yl)amino)-5-ethoxy-2-ethylphenyl)piperidin-4-yl)piperazin-1-yl)methyl)azetidin-1-yl)2,6-difluorophenyl)piperidine-2,6-dione], the DC50 in test [1] worked out at 2.08 nM; in test [2], 17.8 nM. In addition, the “Dmax (%) H1975 # 28 DTC” value in test [1] is listed as 88.77%.
On the same counts, the results for `COc1cc(N2CCC3(CCN(CCCCCOc4cccc5c4CN(C4CCC(=O)NC4=O)C5=O)CC3)CC2)c(C)cc1Nc1ncc(Br)c(Nc2ccc3nccnc3c2P(C)(C)=O)n1` (stereo not shown) [Example 542, 3-(4-((5-(9-(4-((5-bromo-4-((5-(dimethylphosphoryl)quinoxalin-6-yl)amino)pyrimidin-2-yl)amino)-5-methoxy-2-methylphenyl)-3,9-diazaspiro[5.5]undecan-3-yl)pentyl)oxy)-1-oxoisoindolin-2-yl)piperidine-2,6-dione] are 0.75 nM, 11.2 nM and 45.37%.
As for `CCc1cc(Nc2ncc(Br)c(Nc3ccc4nc(C)ccc4c3P(C)(C)=O)n2)c(OC2CC2)cc1N1CCC(N2CCN(C(=O)[C@@H]3CCN(c4cc(F)c([C@H]5CCC(=O)NC5=O)c(F)c4)C3)CC2)CC1` [Example 544, (R)-3-(4-((R)-3-(4-(1-(4-((5-bromo-4-((5-(dimethylphosphoryl)-2-methylquinolin-6-yl)amino)pyrimidin-2-yl)amino)-5-cyclopropoxy-2-ethylphenyl)piperidin-4-yl)piperazine-1-carbonyl)pyrrolidin-1-yl)-2,6-difluorophenyl)piperidine-2,6-dione], in test [1], the DC50 is 1.48 nM and the “Dmax (%) H1975 # 28 DTC” value amounted to 81.13%. In test [2], the DC50 came to 12.5 nM and the Dmax was 90.3%.
In the case of `CCc1ccc2c(P(C)(C)=O)c(Nc3nc(Nc4cc(CC)c(N5CCC(N6CCN(CCc7cc(F)c([C@H]8CCC(=O)NC8=O)c(F)c7)CC6)CC5)cc4OC4CC4)ncc3Br)ccc2n1` [Example 547, (R)-3-(4-(2-(4-(1-(4-((5-bromo-4-((5-(dimethylphosphoryl)-2-ethylquinolin-6-yl)amino)pyrimidin-2-yl)amino)-5-cyclopropoxy-2-ethylphenyl)piperidin-4-yl)piperazin-1-yl)ethyl)-2,6-difluorophenyl)piperidine-2,6-dione], in test [1], the DC50 was 0.647 nM and the “Dmax (%) H1975 # 28 DTC” value is given as 87.96%. In test [2], the DC50 turned out to be 4.45 nM and the Dmax was found to be 89.3%.
